Measurements reported in patent publication US20210261512A1, “NOVEL COMPOUNDS” (INFLAZOME LIMITED, priority 2018, published 2021).

What follows are compounds tested against NLRP3 (Homo sapiens, UniProt Q96P20) (assay: THP-1 cells pyroptosis assay). Conditions: LPS 1.0 μg/ml, nigericin 5 μM, resazurin readout, 10 μM top dose (Example 2: top dose of 30 μM).
Assay type: cell-based
Design: Seed THP-1 cells (25,000 cells/well) containing 1.0 μg/ml LPS; host or cells: THP-1
Method in brief: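 Pyroptosis induced by 5 μM nigericin (1 h) in LPS-primed (1 μg/ml) THP-1 cells, 25,000/well in serum-free RPMI, after 3 h compound pre-treatment (8 points, 10 μM top unless stated). Surviving cells measured with 100 μM resazurin, Ex 560/Em 590; IC50 via variable-slope 4-parameter regression.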

NLRP3, sequence (Q96P20 whole entry): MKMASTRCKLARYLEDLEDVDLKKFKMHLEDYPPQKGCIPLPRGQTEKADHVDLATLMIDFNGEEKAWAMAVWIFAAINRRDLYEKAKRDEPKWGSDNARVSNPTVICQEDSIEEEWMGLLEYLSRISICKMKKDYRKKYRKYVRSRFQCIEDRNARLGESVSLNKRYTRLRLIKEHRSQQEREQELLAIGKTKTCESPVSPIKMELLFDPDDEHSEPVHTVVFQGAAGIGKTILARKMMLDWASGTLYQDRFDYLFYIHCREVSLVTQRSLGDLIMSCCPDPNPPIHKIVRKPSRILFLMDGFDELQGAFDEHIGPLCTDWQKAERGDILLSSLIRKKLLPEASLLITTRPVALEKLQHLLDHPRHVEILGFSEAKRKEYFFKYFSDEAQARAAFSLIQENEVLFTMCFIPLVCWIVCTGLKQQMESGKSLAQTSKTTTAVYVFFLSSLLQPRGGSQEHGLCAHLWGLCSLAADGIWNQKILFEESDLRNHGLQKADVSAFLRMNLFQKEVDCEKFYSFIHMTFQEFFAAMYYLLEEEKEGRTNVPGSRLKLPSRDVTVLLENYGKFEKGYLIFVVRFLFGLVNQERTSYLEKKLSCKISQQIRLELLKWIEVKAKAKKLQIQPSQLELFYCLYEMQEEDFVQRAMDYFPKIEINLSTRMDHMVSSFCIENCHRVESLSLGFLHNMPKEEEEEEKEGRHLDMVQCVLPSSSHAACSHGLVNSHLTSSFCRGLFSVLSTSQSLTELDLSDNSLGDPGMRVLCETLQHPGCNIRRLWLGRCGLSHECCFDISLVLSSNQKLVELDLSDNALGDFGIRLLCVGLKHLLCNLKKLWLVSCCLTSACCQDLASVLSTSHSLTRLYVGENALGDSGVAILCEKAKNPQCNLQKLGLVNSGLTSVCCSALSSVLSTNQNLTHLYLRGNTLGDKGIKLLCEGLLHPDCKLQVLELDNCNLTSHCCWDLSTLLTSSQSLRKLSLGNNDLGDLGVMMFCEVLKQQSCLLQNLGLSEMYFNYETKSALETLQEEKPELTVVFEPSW

| Compound | IC50 |
| --- | --- |
| NC(=O)c1ccc(S(=O)(=O)c2nnc(Nc3c4c(cc5c3CCC5)CCC4)[nH]2)cc1 [Example 327, 4-((5-((1,2,3,5,6,7-hexahydro-s-indacen-4-yl)amino)-4H-1,2,4-triazol-3-yl)sulfonyl)benzamide] | ≤ 5 µM |
| O=C1CC2(CN1)CN(S(=O)(=O)c1nnc(Nc3c4c(cc5c3CCC5)CCC4)[nH]1)C2 [Example 332, 2-((5-((1,2,3,5,6,7-hexahydro-s-indacen-4-yl)amino)-4H-1,2,4-triazol-3-yl)sulfonyl)-2,6-diazaspiro[3.4]octan-7-one] | ≤ 10 µM |
| O=S(=O)(c1nnc(Nc2c3c(cc4c2CCC4)CCC3)[nH]1)N1CCC2(COC2)C1 [Example 333, 5-(2-oxa-6-azaspiro[3.4]octan-6-ylsulfonyl)-N-(1,2,3,5,6,7-hexahydro-s-indacen-4-yl)-4H-1,2,4-triazol-3-amine] | ≤ 5 µM |
| O=S(=O)(c1ccn(CCO)n1)c1nnc(Nc2c3c(cc4c2CCC4)CCC3)[nH]1 [Example 334, 2-(3-((5-((1,2,3,5,6,7-hexahydro-s-indacen-4-yl)amino)-4H-1,2,4-triazol-3-yl)sulfonyl)-1H-pyrazol-1-yl)ethanol] | ≤ 1 µM |
| O=S(=O)(c1cnn(CCO)c1)c1nnc(Nc2c3c(cc4c2CCC4)CCC3)[nH]1 [Example 335, 2-(4-((5-((1,2,3,5,6,7-hexahydro-s-indacen-4-yl)amino)-4H-1,2,4-triazol-3-yl)sulfonyl)-1H-pyrazol-1-yl)ethanol] | ≤ 5 µM |
| CC(C)(O)Cn1cc(S(=O)(=O)c2nnc(Nc3c4c(cc5c3CCC5)CCC4)[nH]2)cn1 [Example 336, 1-(4-((5-((1,2,3,5,6,7-hexahydro-s-indacen-4-yl)amino)-4H-1,2,4-triazol-3-yl)sulfonyl)-1H-pyrazol-1-yl)-2-methylpropan-2-ol] | ≤ 5 µM |
| CC(C)n1cc(S(=O)(=O)c2nnc(Nc3c4c(cc5c3CCC5)CCC4)[nH]2)cn1 [Example 338, N-(1,2,3,5,6,7-hexahydro-s-indacen-4-yl)-5-((1-isopropyl-1H-pyrazol-4-yl)sulfonyl)-4H-1,2,4-triazol-3-amine] | ≤ 5 µM |
| CS(=O)(=O)c1nnc(Nc2c(-c3ccnc(Oc4ccccc4)c3)ccc3c2CCC3)[nH]1 [Example 340, 5-(methylsulfonyl)-N-(5-(2-phenoxypyridin-4-yl)-2,3-dihydro-1H-inden-4-yl)-4H-1,2,4-triazol-3-amine] | ≤ 5 µM |
| CS(=O)(=O)c1nnc(Nc2c(-c3ccnc(OC4CCOCC4)c3)ccc3c2CCC3)[nH]1 [Example 342, 5-(methylsulfonyl)-N-(5-(2-((tetrahydro-2H-pyran-4-yl)oxy)pyridin-4-yl)-2,3-dihydro-1H-inden-4-yl)-4H-1,2,4-triazol-3-amine] | ≤ 5 µM |
| CN(C)C(=O)Cn1cc(S(=O)(=O)c2nnc(Nc3c4c(cc5c3CCC5)CCC4)[nH]2)cn1 [Example 348, 2-(4-((5-((1,2,3,5,6,7-hexahydro-s-indacen-4-yl)amino)-4H-1,2,4-triazol-3-yl)sulfonyl)-1H-pyrazol-1-yl)-N,N-dimethylacetamide] | ≤ 5 µM |
| CN(C)CCn1cc(S(=O)(=O)c2nnc(Nc3c4c(cc5c3CCC5)CCC4)[nH]2)cn1 [Example 350, 5-((1-(2-(dimethylamino)ethyl)-1H-pyrazol-4-yl)sulfonyl)-N-(1,2,3,5,6,7-hexahydro-s-indacen-4-yl)-4H-1,2,4-triazol-3-amine] | ≤ 1 µM |
| Cn1cc(C#N)c(S(=O)(=O)c2nnc(Nc3c4c(cc5c3CCC5)CCC4)[nH]2)n1 [Example 351, 3-((5-((1,2,3,5,6,7-hexahydro-s-indacen-4-yl)amino)-4H-1,2,4-triazol-3-yl)sulfonyl)-1-methyl-1H-pyrazole-4-carbonitrile] | ≤ 5 µM |
| CC(O)Cn1cc(S(=O)(=O)c2nnc(Nc3c4c(cc5c3CCC5)CCC4)[nH]2)cn1 (centres unmarked) [Example 353, 1-(4-((5-((1,2,3,5,6,7-hexahydro-s-indacen-4-yl)amino)-4H-1,2,4-triazol-3-yl)sulfonyl)-1H-pyrazol-1-yl)propan-2-ol] | ≤ 5 µM |
| O=S(=O)(c1ccn(C2CC2)n1)c1nnc(Nc2c3c(cc4c2CCC4)CCC3)[nH]1 [Example 354, 5-((1-cyclopropyl-1H-pyrazol-3-yl)sulfonyl)-N-(1,2,3,5,6,7-hexahydro-s-indacen-4-yl)-4H-1,2,4-triazol-3-amine] | ≤ 0.5 µM |
| Cn1ncc(S(=O)(=O)c2nnc(Nc3c4c(cc5c3CCC5)CCC4)[nH]2)c1C#N [Example 355, 4-((5-((1,2,3,5,6,7-hexahydro-s-indacen-4-yl)amino)-4H-1,2,4-triazol-3-yl)sulfonyl)-1-methyl-1H-pyrazole-5-carbonitrile] | ≤ 5 µM |
| CN(C)C1CCC(Oc2cc(-c3ccc4c(c3Nc3nnc(S(C)(=O)=O)[nH]3)CCC4)ccn2)CC1 (centres unmarked) [Example 356, N-(5-(2-((4-(dimethylamino)cyclohexyl)oxy)pyridin-4-yl)-2,3-dihydro-1H-inden-4-yl)-5-(methylsulfonyl)-4H-1,2,4-triazol-3-amine] | ≤ 5 µM |
| CS(=O)(=O)c1nnc(Nc2c(-c3ccnc(OC4CCNCC4)c3)ccc3c2CCC3)[nH]1 [Example 357, 5-(methylsulfonyl)-N-(5-(2-(piperidin-4-yloxy)pyridin-4-yl)-2,3-dihydro-1H-inden-4-yl)-4H-1,2,4-triazol-3-amine] | ≤ 10 µM |
| CN1CCC(COc2cc(-c3ccc4c(c3Nc3nnc(S(C)(=O)=O)[nH]3)CCC4)ccn2)C1 (centres unmarked) [Example 358, N-(5-(2-((1-methylpyrrolidin-3-yl)methoxy)pyridin-4-yl)-2,3-dihydro-1H-inden-4-yl)-5-(methylsulfonyl)-4H-1,2,4-triazol-3-amine] | ≤ 10 µM |
| CN1CCCC(COc2cc(-c3ccc4c(c3Nc3nnc(S(C)(=O)=O)[nH]3)CCC4)ccn2)C1 (centres unmarked) [Example 359, N-(5-(2-((1-methylpiperidin-3-yl)methoxy)pyridin-4-yl)-2,3-dihydro-1H-inden-4-yl)-5-(methylsulfonyl)-4H-1,2,4-triazol-3-amine] | ≤ 5 µM |
| COc1cc(-c2ccc3c(c2Nc2nnc(S(C)(=O)=O)[nH]2)CCC3)ccn1 [Example 361, N-(5-(2-methoxypyridin-4-yl)-2,3-dihydro-1H-inden-4-yl)-5-(methylsulfonyl)-4H-1,2,4-triazol-3-amine] | ≤ 10 µM |
| Cc1cc2c(c(Nc3nnc(S(C)(=O)=O)[nH]3)c1-c1ccnc(OCC3CCCN(C)C3)c1)CCC2 (centres unmarked) [Example 362, N-(6-methyl-5-(2-((1-methylpiperidin-3-yl)methoxy)pyridin-4-yl)-2,3-dihydro-1H-inden-4-yl)-5-(methylsulfonyl)-4H-1,2,4-triazol-3-amine] | ≤ 5 µM |
| COCC(C)Oc1cc(-c2c(C)cc3c(c2Nc2nnc(S(C)(=O)=O)[nH]2)CCC3)ccn1 (centres unmarked) [Example 363, N-(5-(2-((1-methoxypropan-2-yl)oxy)-pyridin-4-yl)-6-methyl-2,3-dihydro-1H-inden-4-yl)-5-(methylsulfonyl)-4H-1,2,4-triazol-3-amine] | ≤ 5 µM |
| Cc1cc2c(c(Nc3nnc(S(C)(=O)=O)[nH]3)c1-c1ccnc(OC3CCOCC3)c1)CCC2 [Example 364, N-(6-methyl-5-(2-((tetrahydro-2H-pyran-4-yl)oxy)pyridin-4-yl)-2,3-dihydro-1H-inden-4-yl)-5-(methylsulfonyl)-4H-1,2,4-triazol-3-amine] | ≤ 5 µM |
